Data from patent EP3156398A1, “AGONISTS OF THE CHEMOKINE RECEPTOR CXCR3” (Friedrich-Alexander-Universität Erlangen-Nürnberg, priority 2015, dated 2017).
Like-named read-outs stand apart in the source and are kept apart here.

Columns and labels:
CXCR3-PK1 = target: T1, CXCR3-PK1 (Homo sapiens, UniProt P49682); assay: β-arrestin 2 recruitment assay (PathHunter, DiscoveRx), CXCR3-PK1 construct; assay type: cell-based
T1 construct: expressed in transfected cells; host or cells: HEK293 cells stably expressing beta-gal enzyme acceptor (PathHunter, DiscoveRx), transiently transfected
T1 sequence (P49682 1-368): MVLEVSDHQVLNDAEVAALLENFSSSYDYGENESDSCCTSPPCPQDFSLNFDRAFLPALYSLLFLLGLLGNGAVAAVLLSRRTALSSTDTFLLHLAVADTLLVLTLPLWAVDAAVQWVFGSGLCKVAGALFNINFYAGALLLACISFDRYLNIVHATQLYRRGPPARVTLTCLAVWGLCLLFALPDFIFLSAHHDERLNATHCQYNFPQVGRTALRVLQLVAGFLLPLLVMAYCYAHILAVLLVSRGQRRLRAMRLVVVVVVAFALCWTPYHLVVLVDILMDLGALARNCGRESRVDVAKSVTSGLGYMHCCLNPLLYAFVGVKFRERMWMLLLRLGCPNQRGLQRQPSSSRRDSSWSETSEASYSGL
Protocol: β-arrestin 2 recruitment assay: The measurement of β-arrestin recruitment was performed utilizing the PathHunter assay purchased from DiscoveRx (DiscoveRx, Birmingham, U.K.) according to the manufacturer's protocol. HEK293 cells stably expressing β-gal enzyme acceptor were transiently transfected with the ProLink (PK1) tagged wildtype CXCR3 receptor using the TransIT-293 transfection reagent from Mirus (purchased from MoBiTec, Goettingen, Germany). The assay was carried out in 384-well plates containing 2000 cells in 20 µL. After incubation at 37°C (5% CO2, 95% relative humidity) overnight, various concentrations of test compounds or CXCL11 (prepared in PBS, pH 7.4, containing 0.20% BSA) were added and the incubation continued for 4 h. Detection mix was then added and incubated for further 60 min at room temperature. Chemiluminescence was determined with a microplate reader Clariostar (BMG labtech, Ortenberg, Germany).
The ability of the novel ligands according to the present invention to induce CXCR3-mediated β-arrestin 2 recruitment was investigated in the assay system PathHunter (DiscoveRx), which detects the recruitment of β-amestin 2 to the activated receptor using β-galactosidase (β-gal) enzyme fragment complementation. The inventors used two different ProLink tags, ProLink1 (PK1) and ProLink2 (PK2), of which PK2 has higher affinity for the enzyme acceptor to detect weak protein-protein interactions. The CXCR3-PK2 construct is readily able to detect the differences in the propensity of CXCL11 and CXCL10 to induce β-arrestin 2 recruitment at CXCR3. […] Table 3. Ability of the 46/VUF10661 based positive allosteric modulators to activate the CXCR3 as measured in the β-arrestin 2 recruitment assay (PathHunter, DiscoveRx).[a]

CXCR3 = target: T2, CXCR3 (Homo sapiens, UniProt P49682); assay: [35S]GTPγS incorporation assay; assay type: biochemical; settings: for Emax: read-out: CXCR3 Efficacy (%) ± SEM; for CXCR3 pEC50 ± SEM: mean of three experiments in triplicate; for CXCR3 mediated G protein activation (result in words): [35S]GTPγS incorporation
T2 construct: expressed in transfected cells; host or cells: HEK293 / HEK293T cells, stably transfected; membrane preparations
T2 sequence (P49682 1-368): T1 sequence (P49682 1-368)
Protocol: Membrane preparation for allosteric radioligand RAMX3 displacement and [^35S]GTPγS incorporation assays: The human embryonic kidney (HEK) cells stably expressing the human CXCR3 receptor were cultured in 150-mm cell culture plates in DMEM/F-12 supplemented with 10% fetal bovine serum (FBS), 2 mM L-glutamine, 1% penicillin-streptomycin, 300 µgmL^-1 Zeocin and incubated at 37 °C in a humid atmosphere with 5% CO2. At 100% confluency cells were washed with PBS twice, treated with Tris EDTA buffer (10 mM Tris, 0.5 mM EDTA, 5 mM KCl, 140 mM NaCl, pH 7.4), and harvested using a cell scraper. Cells were pelleted at 1100×g for 8 min at 4 °C, resuspended in Tris-EDTA-MgCl2 buffer (50mM Tris, 5 mM EDTA, 1.5 mM CaCl2, 5 mM MgCl2, 5 mM KCl, 120 mM NaCl, pH 7.4) and followed by lysis with an Ultra-Turrax. After centrifugation at 50,000•g, at 4°C for 18 min the membranes were resuspended in the binding buffer (50 mM Tris, 1 mM EDTA, 5 mM MgCl2 and subsequently homogenized with a glass-Teflon homogenizer (20 strokes). The homogenized membranes were shock-frozen in liquid nitrogen and stored at -80°C. The protein concentration was determined with the Lowry method with bovine serum albumin used as a standard.^35
[^35S]GTPγS incorporation assay: The [^35S]GTPγS incorporation assay was performed on membrane preparations of stably transfected HEK293 cells that expressed the CXCR3 receptor. The assay was carried out in 96-well plates at the final volume of 200 µL. The incubation buffer contained 20 mM HEPES, 10 mM MgCl2•6H20,100 mM NaCl and 100 mg/L saponin (pH 7.4). Membranes (30 µgmL^-1 of membrane protein), various concentrations of test compound and CXCL11, and 1 µM GDP were preincubated in the absence of [^35S]GTPγS for 30 min at 37 °C. After the addition of 0.10 nM [^35S]GTPγS membranes were incubated for additional 30 min at 37 °C. Incubation was terminated by filtration through Whatman GF/B filters soaked with ice cold PBS. The filter-bound radioactivity was measured as described above. Three to four experiments per compound were performed with each concentration in triplicate.
The activation of G proteins was explored in terms of CXCR3 mediated [^35S]GTPγS incorporation. In the [^35S]GTPγS incorporation assay the membrane preparations of HEK293T cells stably expressing CXCR3 were used. The activation of G proteins was monitored as the incorporation of [^35S]GTPγS and thus increase in the incorporated radioactivity. The potency and efficacy of the novel compounds was first compared to the reference compound 46/VUF10661. […] Table 1. The ability of the 46/VUF10661 based positive allosteric modulators to activate CXCR3 as measured in the [35S]GTPγS incorporation assay.[a]

[1] = HEK293-T cells, PathHunter, CXCR3-PK1, two to three experiments in triplicate
[2] = % of CXCL11 mediated effect, membrane preparations of HEK293T stably expressing CXCR3
[3] = membrane preparations of HEK293T stably expressing CXCR3

| Structure (SMILES) | β-arrestin 2 recruitment, intrinsic agonism (result in words) (CXCR3-PK1) | CXCR3-PK1 pEC50 ± SEM (CXCR3-PK1; [1]) | Emax (CXCR3; [2]) [%] | CXCR3 pEC50 ± SEM (CXCR3; [3]) | CXCR3 Efficacy (%) ± SEM (CXCR3; [2]) | CXCR3 mediated G protein activation (result in words) (CXCR3) | Emax (CXCR3) [%] | CXCR3-PK1 efficacy (%) at 10µM (CXCR3-PK1; @10µM, % of CXCL11 mediated effect, CXCR3-PK1) [%] | EC50 (CXCR3-PK1; HEK293-T cells, PathHunter, CXCR3-PK1, two to three experiments in triplicate, read-out: CXCR3-PK1 pEC50 ± SEM (converted)) [µM] |
| --- | --- | --- | --- | --- | --- | --- | --- | --- | --- |
| CC(C)(C)OC(=O)N[C@@H](CCCCNC(=O)[C@@H]1Cc2ccccc2CN1C(=O)CCC(=O)c1ccc(F)cc1)C(=O)NCC(c1ccccc1)c1ccccc1 [Compound 13, Tert-butyl ((S)-1-((2,2-diphenylethyl)amino)-6-((S)-2-(4-(4-fluorophenyl)-4-oxobutanoyl)-1,2,3,4-tetrahydroisoquinoline-3-carboxamido)-1-oxohexan-2-yl)carbamate] | complete loss of intrinsic agonistic properties | No effect | 20 ± 3 | 6.29±0.31 |  |  |  |  |  |
| CC(C)(C)OC(=O)N[C@@H](CCCCNC(=O)[C@@H]1Cc2ccccc2CN1C(=O)CCC(=O)c1ccc(S(C)(=O)=O)cc1)C(=O)NCC(c1ccccc1)c1ccccc1 [Compound 15, Tert-butyl ((S)-1-((2,2-diphenylethyl)amino)-6-((S)-2-(4-(4-(methylsulfonyl)phenyl)-4-oxobutanoyl)-1,2,3,4-tetrahydroisoquinoline-3-carboxamido)-1-oxohexan-2-yl)carbamate] | complete loss of intrinsic agonistic properties | No effect | 25 ± 3 | 5.91±0.20 |  |  |  |  |  |
| CC(C)(C)OC(=O)N[C@@H](CCCCNC(=O)[C@@H]1Cc2ccccc2CN1C(=O)CCC(=O)N1CCCCC1)C(=O)NCC(c1ccccc1)c1ccccc1 [Compound 16, Tert-butyl ((S)-1-((2,2-diphenylethyl)amino)-1-oxo-6-((S)-2-(4-oxo-4-(piperidin-1-yl)butanoyl)-1,2,3,4-tetrahydroisoquinoline-3-carboxamido)hexan-2-yl)carbamate] |  | No effect |  | No effect | No effect | no reactivity was observed |  |  |  |
| CC(C)(C)OC(=O)N[C@@H](CCCCNC(=O)[C@@H]1Cc2ccccc2CN1C(=O)CCC(=O)N1CCOCC1)C(=O)NCC(c1ccccc1)c1ccccc1 [Compound 17, Tert-butyl ((S)-1-((2,2-diphenylethyl)amino)-6-((S)-2-(4-moipholino-4--oxobutanoyl)-1,2,3,4-tetrahydroisoquinoline-3-carboxamido)-1-oxohexan-2 yl)carbamate] |  | No effect |  | No effect | No effect | no effect |  |  |  |
| CN1CCN(C(=O)CCC(=O)N2Cc3ccccc3C[C@H]2C(=O)NCCCC[C@H](NC(=O)OC(C)(C)C)C(=O)NCC(c2ccccc2)c2ccccc2)CC1.O=C(O)C(F)(F)F [Compound 18, 4-(4-((S)-3-(((S)-5-((tert-butoxycarbonyl)amino)-6-((2,2-diphenylethyl)amino)-6-oxohexyl)carbamoyl)-3,4-dihydroisoquinolin-2(1H)-yl)-4-oxobutanoyl)-1-methylpiperazin-1-ium 2,2,2-trifluoroacetate] |  | No effect |  | No effect | No effect | no effect |  |  |  |
| CC(C)(C)OC(=O)N[C@@H](CCCCNC(=O)[C@@H]1Cc2ccccc2CN1C(=O)CCC(=O)c1cccs1)C(=O)NCC(c1ccccc1)c1ccccc1 [Compound 19, Tert-butyl ((S)-1-((2,2-diphenylethyl)amino)-1-oxo-6-((S)-2-(4-oxo-4-(thiophen-2-yl)butanoyl)-1,2,3,4-tetrahydroisoquinoline-3-carboxamido)hexan-2-yl)carbamate] |  | No effect |  | No effect | No effect |  |  |  |  |
| CC(C)(C)OC(=O)N[C@@H](CCCCNC(=O)[C@@H]1Cc2ccccc2CN1C(=O)CCC(=O)c1ccco1)C(=O)NCC(c1ccccc1)c1ccccc1 [Compound 20, Tert-butyl ((S)-1-((2,2-diphenylethyl)amino)-6-((S)-2-(4-(furan-2-yl)-4-oxobutanoyl)-1,2,3,4-tetrahydroisoquinoline-3-carboxamido)-1-oxohexan-2-yl)carbamate] |  | No effect |  | No effect | No effect |  |  |  |  |
| COc1ccc(C(=O)CCC(=O)N2Cc3ccccc3C[C@H]2C(=O)NCCCC[C@H](NC(=O)OC(C)(C)C)C(=O)NCC(c2ccccc2)c2ccccc2)cc1OC [Compound 21, Tert-butyl ((S)-6-((S)-2-(4-(3,4-dimethoxyphenyl)-4-oxobutanoyl)-1,2,3,4-tetrahydroisoquinoline-3-carboxamido)-1-((2,2-diphenylethyl)amino)-1-oxohexan-2-yl)carbamate] | complete loss of intrinsic agonistic properties | No effect | 18 | 7.30±0.17 | 18±1% |  |  |  |  |
| CC(C)(C)OC(=O)N[C@@H](CCCCNC(=O)[C@@H]1Cc2ccccc2CN1C(=O)CCCc1ccccc1)C(=O)NCC(c1ccccc1)c1ccccc1 [Compound 22, Tert-butyl ((S)-1-((2,2-diphenylethyl)amino)-1-oxo-6-((S)-2-(4-phenylbutanoyl)-1,2,3,4-tetrahydroisoquinoline-3-carboxammido)hexan-2-yl)carbamate] |  | No effect |  | 5.07±0.50 |  |  | 29 ± 15 |  |  |
| CC(C)(C)OC(=O)NCCCC[C@H](NC(=O)[C@@H]1Cc2ccccc2CN1C(=O)CCC(=O)c1ccccc1)C(=O)NCC(c1ccccc1)c1ccccc1 [Compound 44, Tert-buyl ((S)-6-((2,2-diphenylethyl)amino)-6-oxo-5-((S)-2-(4-oxo-4-phenylbutanoyl)-1,2,3,4-tetrahydroisoquinoline-3-carboxamido)hexyl)carbamate] |  |  | 47 ± 3 | 5.88±0.10 |  |  |  | 70 | < 10 |
